Assay results: ChEMBL document CHEMBL4428032, “Furofuran Lignan Glucosides with Estrogen-Inhibitory Properties from the Bangladeshi Medicinal Plant Terminalia citrina” (2016)
Activity calls are given as the source filed them. The rule behind the calls is not given here.

What was measured:
[1] = test system: T47D; test: Estrogen-like activity in human T47D cells assessed as increase in cell proliferation after 96 hrs by alamar blue assay; assay type: functional, cell-based
[2] = test system: MCF7; test: Estrogen-like activity in human MCF7 cells assessed as increase in cell proliferation after 96 hrs by alamar blue assay; assay type: functional, cell-based
[3] = test system: T47D; test: Antiestrogenic activity in human T47D cells assessed as compound concentration required to decrease 100 pM E2-induced cell proliferation to equivalent levels induced by 50 pM E2 after 96 hrs by alamar blue assay; assay type: functional
[4] = test system: Leishmania major; test: Leishmanicidal activity against Leishmania major promastigotes at 100 ug/ml after 48 hrs by MTT assay; assay type: functional, organism-based
[5] = test system: MCF7; test: Antiestrogenic activity in human MCF7 cells assessed as compound concentration required to decrease 100 pM E2-induced cell proliferation to equivalent levels induced by 10 pM E2 after 96 hrs by alamar blue assay; assay type: functional
[6] = test system: MCF7; test: Antiestrogenic activity in human MCF7 cells assessed as inhibition of E2-induced cell proliferation up to 10 uM after 96 hrs by alamar blue assay relative to control; assay type: functional
[7] = test system: MCF7; test: Antiestrogenic activity in human MCF7 cells assessed as compound concentration required to decrease 100 pM E2-induced cell proliferation to equivalent levels induced by 50 pM E2 after 96 hrs by alamar blue assay; assay type: functional
[8] = test system: T47D; test: Antiestrogenic activity in human T47D cells assessed as compound concentration required to decrease 100 pM E2-induced cell proliferation to equivalent levels induced by 10 pM E2 after 96 hrs by alamar blue assay; assay type: functional
[9] = test system: T47D; test: Antiestrogenic activity in human T47D cells assessed as inhibition of E2-induced cell proliferation up to 10 uM after 96 hrs by alamar blue assay relative to control; assay type: functional
[10] = test system: MCF7; test: Antiestrogenic activity in human MCF7 cells assessed as compound concentration required to decrease 100 pM E2-induced cell proliferation to equivalent levels induced by 1 pM E2 after 96 hrs by alamar blue assay; assay type: functional
[11] = test system: T47D; test: Antiestrogenic activity in human T47D cells assessed as compound concentration required to decrease 100 pM E2-induced cell proliferation to equivalent levels induced by 1 pM E2 after 96 hrs by alamar blue assay; assay type: functional

| SMILES | Activity [1] | Activity [2] | Activity [3] | Activity [4] | Activity [5] | inhibition (INH) [6] | Activity [7] | Activity [8] | inhibition (INH) [9] | Activity [10] | Activity [11] |
| --- | --- | --- | --- | --- | --- | --- | --- | --- | --- | --- | --- |
| COc1cc([C@H]2OC[C@H]3[C@@H]2CO[C@H]3c2cc(OC)c(OC)c(OC)c2O[C@@H]2O[C@H](CO)[C@@H](O)[C@H](O)[C@H]2O)cc2c1OCO2 | inactive | inactive | 5.6 µM | inactive | 0.6 µM | >50% | <0.01 µM | – | – | – | – |
| COc1c(O)cc([C@H]2OC[C@H]3[C@@H]2CO[C@@H]3c2cc3c(c(OC)c2OC)OCO3)c(O[C@@H]2O[C@H](CO)[C@@H](O)[C@H](O)[C@H]2O)c1OC | inactive | inactive | <0.01 µM | inactive | <0.01 µM | >90% | <0.01 µM | – | – | – | – |
| COc1cc([C@H]2OC[C@H]3[C@@H]2CO[C@@H]3c2cc(OC)c(OC)c(OC)c2O[C@@H]2O[C@H](CO)[C@@H](O)[C@H](O)[C@H]2O)cc(OC)c1OC | inactive | inactive | <0.01 µM | inactive | 9.8 µM | >50% | <0.01 µM | <0.01 µM | >90% | – | – |
| COc1cc([C@@H]2OC[C@@H]3[C@H]2CO[C@H]3c2cc(O[C@@H]3O[C@H](CO)[C@@H](O)[C@H](O)[C@H]3O)c(OC)c(OC)c2OC)c(OC)c(OC)c1OC | inactive | inactive | <0.01 µM | inactive | – | – | <0.01 µM | 1 µM | >50% | – | – |
| COc1c(O)cc([C@@H]2OC[C@@H]3[C@H]2CO[C@H]3c2cc(O[C@@H]3O[C@H](CO)[C@@H](O)[C@H](O)[C@H]3O)c(OC)c(OC)c2OC)c(OC)c1OC | inactive | inactive | <0.01 µM | inactive | <0.1 µM | >90% | <0.01 µM | – | – | – | – |
| COc1cc([C@H]2OC[C@H]3[C@@H]2CO[C@@H]3c2cc(OC)c(OC)c(OC)c2O[C@@H]2O[C@H](CO)[C@@H](O)[C@H](O)[C@H]2O)c(O)c(OC)c1OC | inactive | inactive | <0.01 µM | inactive | – | – | <0.01 µM | – | – | – | – |
| COc1cc([C@H]2OC[C@H]3[C@@H]2CO[C@@H]3c2cc(O)c(OC)c(OC)c2O[C@@H]2O[C@H](CO)[C@@H](O)[C@H](O)[C@H]2O)cc2c1OCO2 | inactive | inactive | 10 µM | inactive | <0.1 µM | >90% | <0.01 µM | – | – | – | – |
| COc1cc([C@H]2OC[C@H]3[C@@H]2CO[C@@H]3c2ccc3c(c2)OCO3)c(O[C@@H]2O[C@H](CO)[C@@H](O)[C@H](O)[C@H]2O)c(OC)c1OC | inactive | inactive | <0.01 µM | inactive | <0.01 µM | – | <0.01 µM | <0.01 µM | >90% | 3.5 µM | – |
| CC/C(=C(\c1ccccc1)c1ccc(OCCN(C)C)cc1)c1ccccc1 [TAMOXIFEN] | – | – | 0.1 µM | – | 0.3 µM | – | 0.1 µM | 0.9 µM | – | 4.5 µM | 7 µM |
| COc1cc([C@@H]2OC[C@@H]3[C@H]2CO[C@H]3c2cc(O)c(OC)c(OC)c2O[C@@H]2O[C@H](CO)[C@@H](O)[C@H](O)[C@H]2O)c(OC)c(OC)c1OC | inactive | inactive | <0.01 µM | inactive | – | – | <0.01 µM | – | – | – | – |
| COc1cc([C@H]2OC[C@H]3[C@@H]2CO[C@@H]3c2cc(OC)c(OC)c(OC)c2O[C@@H]2O[C@H](CO)[C@@H](O)[C@H](O)[C@H]2O)cc2c1OCO2 | inactive | inactive | – | inactive | – | – | <0.01 µM | – | – | – | – |
| COc1cc([C@@H]2OC[C@H]3[C@@H]2CO[C@@H]3c2cc(OC)c(OC)c(OC)c2O[C@@H]2O[C@H](CO)[C@@H](O)[C@H](O)[C@H]2O)c(O)c(OC)c1OC | inactive | inactive | <0.1 µM | inactive | <0.01 µM | >90% | <0.01 µM | – | – | – | – |
| COc1cc([C@H]2OC[C@H]3[C@@H]2CO[C@@H]3c2cc(OC)c3c(c2)OCO3)cc(O[C@@H]2O[C@H](CO)[C@@H](O)[C@H](O)[C@H]2O)c1OC | inactive | inactive | <0.01 µM | inactive | – | – | <0.01 µM | <0.01 µM | >90% | – | – |
| COc1c(O)cc([C@H]2OC[C@H]3[C@@H]2CO[C@@H]3c2ccc3c(c2)OCO3)c(O[C@@H]2O[C@H](CO)[C@@H](O)[C@H](O)[C@H]2O)c1OC | inactive | inactive | <0.01 µM | inactive | – | – | <0.01 µM | – | – | – | – |
